In US20050124554A1, “Spermidine derivatives for the treatment of chronic neurodegenerative diseases” (priority 2002, published 2005):
Several values for one entry are separate records, joined by “and”; a condition that tells them apart may be missing. Equal entries are not always repeated.

How the values were obtained:
[1] = system: superoxide production in organotypic slice cultures (CA1 pyramidal cell layer); test: Superoxide production monitored fluorescently with hydroethidine (HEt); assay type: cell-based, Wistar rat; settings: 10 μM AMPA alone
Procedure: Hydroethidine (HEt) has been utilised to fluorescently monitor the production of superoxide in primary neuronal cultures [Bindokas et al., (1996), Carriedo et al. (1998)]. A stock solution of HEt was made was made in N2 sparged DMSO (10 mg ml^−1) which was then aliquoted and stored at −80° C. aliquots were used only once before being discarded. Two separate experimental paradigms were employed to test the effect of L-Arg3,4 on superoxide production in response to either AMPA or NMDA stimulation.
For the AMA experiments, organotypic slice cultures were loaded with 1 μg ml^−1 HEt in HEPES buffered salt solution (HSS) (in mM): glucose 10, NaCl 144, KCl 5, HEPES 10, MgCl2 1, CaCl2 2, pH 7.4, for 30 minutes in the dark. All subsequent solutions contained HEt to prevent a decrease in signal due to reporter depletion. Images were acquired once per minute for the duration of the experiment on the same system as described above for assessment of cell death. A 10 minute record of baseline superoxide production was produced before the bathing solution was exchanged for HBSS+BEt containing 10 μM AMPA, again for 10 minutes. As shown previously, stimulation of glutamate receptors with AMPA lead to an increase in superoxide production [Bindokas et al., (1996), Carriedo et al. (1998)]. The bathing solution was then exchanged for HBSS+HEt containing both 10 μM AMPA and 300 μM L-Arg3,4 for 10 minutes to test the effect of L-Arg3,4 on superoxide production. In separate control experiments, 300 μM L-Arg3,4 in HSS was incubated with slices to determine if it affected baseline superoxide production on its own.
Acquired images from the AMPA experiments were then analysed with the OpenLab image analysis package. A region of interest was drawn around the CA1 pyramidal cell layer because this was the cell layer that produced the largest increase in fluorescence in response to AMPA activation. In each image, within the region of interest, the average pixel value was calculated in arbitrary units (AU) to produce a record of fluorescence intensity values over time. A linear regression was then performed on the data to calculate the rate of superoxide production as change in intensity over time (arbitrary units per minute, AU min^−1) for each of the treatments. Data is presented as mean±s.d. Rates of superoxide production were then compared by ANOVA followed by post-hoc comparisons with Bonferroni corrections with significance indicated as * for P<0.05 and ** for P<0.01.

[2] = system: models of excitotoxicity; settings: Hartley & Choi 1989; cited from earlier work
[3] = system: acute hippocampal slices (CA1 pyramidal cell layer, Schaffer collateral stimulation); test: Electrophysiology: evoked field responses / synaptic transmission; design: species or system Sprague-Dawley rats
Excerpt: All animal procedures to produce acute hippocampal slices were approved by the Home Office. Male, 250 g, Sprague-Dawley rats were deeply anaesthetised with halothane and decapitated. The brain was quickly removed, and the hippocampi dissected out and then cut into 300 μm thick transverse slices on a vibratome (Leica, Milton Keynes, UK) in cold cutting solution (in mM: 189 sucrose, 2.5 KCl, 26 NaHCO3, 1.2 NaH2PO4, 10 glucose, 5 MgCl2, 0.1 CaCl2) equilibrated with 5% CO2, 95% O2. Slices were transferred to aCSF (in mM: 10 glucose, 125 NaCl, 5 KCl, 26 NaHCO3, 1 MgCl2, 1.25 NaH2PO4, 2 CaCl2, 10 sucrose) at room temperature, bubbled with 5% CO2 and 95% O2, for at least 1 h before use.
Slices were then transferred to a submerged perfusion chamber (2 ml volume) for the electrophysiological recordings and were perfused at 10 ml min^−1 at 25° C. with aCSF equilibrated with 5% CO2 and 95% O2, and allowed to equilibrate for 1 h before manipulations were started. Experimental compounds were applied by bath perfusion. L-Arg3,4 was applied at 300 μM and DNQX was applied at 10 μM final concentration. DNQX was diluted from a 40 mM stock in DMSO (final DMSO of 0.025%). The Schaffer collaterals of CA3 were stimulated at voltages from 0 to 30 V with a constant voltage stimulator (Digitimer, Hertfordshire, UK) via a twisted pair stimulating electrode of polyimide coated stainless steel wire (Plastics One, Roanoke, Va.). Field potential responses were recorded with an Axopatch 200B amplifier (Axon Instruments, Foster City, Calif.) in the fast current clamp mode via a 2M KCl filled glass electrode (2-5 MQ) in the CA1 pyramidal cell layer. Responses were filtered at 2 kHz, digitised at 20 kHz with a Digidata 1320A (Axon Instruments), and stored onto hard disk with Clampex 8.1 software (Axon Instruments) running on a Dell Pentium III PC. Data was analysed in Clampfit 8.1 (Axon Instruments).
Stimulus-response (S/R) curves were generated from stimuli from 0 to 30 V in 2 V increments. Bath perfusion of 300 μM L-Arg3,4 in aCSF was applied for 10 min with a sub-maximal stimulus applied every minute to monitor synaptic transmission. A second S/R curve was generated before the perfusion was switched back to plain aCSF. A sub-maximal stimulus was applied every minute during the 15 min wash period after which a third SIR curve was generated. Perfusion of 10 μM DNQX was then started until the response to the sub-maximal stimulus was completely eliminated which always occurred within 10 min. […] In Clampfit, S/R curves were fit to a sigmoidal function of the form: [formula] where R is the magnitude of the evoked response, Rmax is the maximum response, V50 is the voltage which produces a half maximal response, S is the stimulus voltage, and m is proportional to the slope of the linear region of the sigmoid. Data was compared by one way ANOVA.

## Cc1o[nH]c(=O)c1CC(N)C(=O)O (centres unmarked) [AMPA, reference compound]
[1]
  increase of rate of superoxide production over baseline: approximately 5 fold
  rate of superoxide production: 10.65±3.70 AU min-1

## N[C@H](CCCP(=O)(O)O)C(=O)O [D-APV]
[2]
  delay of administration at which effectiveness is lost (therapeutic window): 30 min

## O=c1[nH]c2cc([N+](=O)[O-])c([N+](=O)[O-])cc2[nH]c1=O [DNQX, 6,7-Dinitroquinoxaline-2,3(1H,4H)-dione, reference compound]
[3]; 10 μM, all slices
  time to complete elimination of response / synaptic transmission: ≤ 10 min
[3]; 10 μM, single slice, sub-maximal stimulus
  time to elimination of all transmission: ≤ 5 min
[3]; bath application, L-Arg3,4 300 μM, DNQX 10 μM
  effect on evoked responses: blocked the evoked response completely

## C[C@]12N[C@H](Cc3ccccc31)c1ccccc12 [MK-801]
[2]
  delay of administration at which effectiveness is lost (therapeutic window): 30 min and 15 min

## COc1ccc2c(c1)[C@]13CCCC[C@@H]1[C@H](C2)N(C)CC3 [dextromethorphan]
[2]
  delay of administration at which effectiveness is lost (therapeutic window): 30 min
